Measured values: the supplement of paper PMC10307832

How the values were obtained:
Experiment in all cases: relative viability (nuclei count vs DMSO), 5 days (fraction); higher = more cells survive
COR-L23 = test system: COR-L23
Method in brief: (§1)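 Medians of duplicate plates are given as relative viability. That measure is the nuclei count in treated wells divided by the count in vehicle wells. Counts were taken on 4× images of lung cancer cell lines in 1536-well plates, 5 days after pin-tool dosing the day after seeding with one drug alone or a fixed anchor-drug dose plus five library-drug doses (not always all listed) in √10 steps.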

SW 1573 = test system: SW 1573
Method in brief: as §1

NCI-H1666 = test system: NCI-H1666
Method in brief: as §1

NCI-H1650 = test system: NCI-H1650
Method in brief: as §1

BEN = test system: BEN
Method in brief: as §1

NCI-H2228 = test system: NCI-H2228
Method in brief: as §1

NCI-H1793 = test system: NCI-H1793
Method in brief: as §1

EKVX = test system: EKVX
Method in brief: as §1

NCI-H2023 = test system: NCI-H2023
Method in brief: as §1

NCI-H650 = test system: NCI-H650
Method in brief: as §1

NCI-H460 = test system: NCI-H460
Method in brief: as §1

NCI-H1395 = test system: NCI-H1395
Method in brief: as §1

With `COCC1(CO)C(=O)C2CCN1CC2` (configuration not stated) [PRIMA-1MET] + O=C(c1cc(Cc2n[nH]c(=O)c3ccccc23)ccc1F)N1CCN(C(=O)C2CC2)CC1 [Olaparib] (partner 8 µM) the relative viability (COR-L23; first compound 6.325 µM) was 0.315, the relative viability (COR-L23; first compound 20 µM) was 0.106 and the relative viability (SW 1573; first compound 0.2 µM) was 0.672. For the same molecule, the relative viability (SW 1573; first compound 2 µM) was 0.388, the relative viability (SW 1573; first compound 6.325 µM) was 0.0574 and the relative viability (SW 1573; first compound 20 µM) was 0.0284. For the same molecule, the relative viability (NCI-H1666; first compound 0.2 µM) was 0.773, the relative viability (NCI-H1666; first compound 0.6325 µM) was 0.753 and the relative viability (NCI-H1666; first compound 2 µM) was 0.801. For the same molecule, the relative viability (NCI-H1666; first compound 6.325 µM) was 0.735, the relative viability (NCI-H1666; first compound 20 µM) was 0.739 and the relative viability (NCI-H1650; first compound 0.2 µM) was 0.75. It also gave a relative viability (NCI-H1650; first compound 0.6325 µM) of 0.744, a relative viability (NCI-H1650; first compound 2 µM) of 0.75 and a relative viability (NCI-H1650; first compound 6.325 µM) of 0.709. The relative viability (NCI-H1650; first compound 20 µM) was 0.585, the relative viability (BEN; first compound 0.2 µM) was 1.19 and the relative viability (BEN; first compound 0.6325 µM) was 1.11. It also gave a relative viability (BEN; first compound 6.325 µM) of 1.12, a relative viability (BEN; first compound 20 µM) of 1.07 and a relative viability (NCI-H2228; first compound 0.2 µM) of 0.768. For the same molecule, the relative viability (NCI-H2228; first compound 0.6325 µM) was 0.522, the relative viability (NCI-H2228; first compound 2 µM) was 0.762 and the relative viability (NCI-H2228; first compound 6.325 µM) was 0.577. It also gave a relative viability (NCI-H2228; first compound 20 µM) of 0.0565, a relative viability (NCI-H1793; first compound 0.2 µM) of 1.04 and a relative viability (NCI-H1793; first compound 0.6325 µM) of 0.887. It also gave a relative viability (NCI-H1793; first compound 6.325 µM) of 0.843, a relative viability (NCI-H1793; first compound 20 µM) of 0.539 and a relative viability (EKVX; first compound 0.2 µM) of 1.01. For the same molecule, the relative viability (EKVX; first compound 2 µM) was 0.694, the relative viability (EKVX; first compound 6.325 µM) was 0.825 and the relative viability (EKVX; first compound 20 µM) was 0.403. For the same molecule, the relative viability (NCI-H2023; first compound 0.2 µM) was 0.576, the relative viability (NCI-H2023; first compound 0.6325 µM) was 0.478 and the relative viability (NCI-H2023; first compound 2 µM) was 0.489. The relative viability (NCI-H2023; first compound 6.325 µM) was 0.442, the relative viability (NCI-H2023; first compound 20 µM) was 0.29 and the relative viability (NCI-H650; first compound 0.2 µM) was 0.492. The relative viability (NCI-H650; first compound 0.6325 µM) was 0.453, the relative viability (NCI-H650; first compound 2 µM) was 0.339 and the relative viability (NCI-H650; first compound 6.325 µM) was 0.368. It also gave a relative viability (NCI-H650; first compound 20 µM) of 0.187, a relative viability (NCI-H460; first compound 0.2 µM) of 0.532 and a relative viability (NCI-H460; first compound 0.6325 µM) of 0.337. It also gave a relative viability (NCI-H460; first compound 2 µM) of 0.384, a relative viability (NCI-H460; first compound 6.325 µM) of 0.451 and a relative viability (NCI-H460; first compound 20 µM) of 0.162. For the same molecule, the relative viability (NCI-H1395; first compound 0.2 µM) was 0.51, the relative viability (NCI-H1395; first compound 2 µM) was 0.476 and the relative viability (NCI-H1395; first compound 6.325 µM) was 0.432. For the same molecule, the relative viability (NCI-H1395; first compound 20 µM) was 0.426.
